Experimental data as given in patent publication US20130178609A1, “MODULAR CONSTRUCTION OF LIPOPHOSPHOLIPIDS” (Centre National de la Recherche Scientifique - CNRS, priority 2010, published 2013).
Where “and” joins values, the source holds several entries; their conditions need not be identical. Equal values may be shown once.

Assay: Fluorescence excitation/emission maxima and molar absorption of the fluorescent phospholipids in EtOH
Type: physicochemical

λmax,em: 425 nm and 479 nm
λmax,exc: 349 nm and 412 nm
SMILES: CCCCCCCC/C=C\CCCCCCCCOP(=O)(NCc1cn(-c2cc3ccc(O)cc3oc2=O)nn1)OCCCCCCCC/C=C\CCCCCCCC [Compound 4a]
